Measurements: PubChem BioAssay (NCI)
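Growth conditions: 96-well plates. Treatment: test compound, 48 hours, 5 concentrations. Analysis: linear interpolation between bracketing concentrations; unreached endpoints set to highest concentration. TGI is the concentration that stops growth completely.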

Legend:
Assay in all cases: NCI tumour cell line growth inhibition, 48 h
786-0 renal = system: 786-0 renal
A549 NSCLC = system: A549 NSCLC
ACHN renal = system: ACHN renal
CCRF-CEM leukemia = system: CCRF-CEM leukemia
COLO 205 colon = system: COLO 205 colon
DLD-1 colon = system: DLD-1 colon
DMS 114 small cell lung = system: DMS 114 small cell lung
DMS 273 small cell lung = system: DMS 273 small cell lung
EKVX NSCLC = system: EKVX NSCLC
HCC-2998 colon = system: HCC-2998 colon
HCT-116 colon = system: HCT-116 colon
HOP-18 NSCLC = system: HOP-18 NSCLC
HOP-62 NSCLC = system: HOP-62 NSCLC
HOP-92 NSCLC = system: HOP-92 NSCLC
HT29 colon = system: HT29 colon
IGROV1 ovarian = system: IGROV1 ovarian
K-562 leukemia = system: K-562 leukemia
KM12 colon = system: KM12 colon
KM20L2 colon = system: KM20L2 colon
LOX IMVI melanoma = system: LOX IMVI melanoma
LXFL 529 NSCLC = system: LXFL 529 NSCLC
M14 melanoma = system: M14 melanoma
M19-MEL melanoma = system: M19-MEL melanoma
MALME-3M melanoma = system: MALME-3M melanoma
MOLT-4 leukemia = system: MOLT-4 leukemia
NCI-H226 lung = system: NCI-H226 lung
NCI-H23 lung = system: NCI-H23 lung
NCI-H460 lung = system: NCI-H460 lung
NCI-H522 lung = system: NCI-H522 lung
OVCAR-3 ovarian = system: OVCAR-3 ovarian
OVCAR-4 ovarian = system: OVCAR-4 ovarian
OVCAR-5 ovarian = system: OVCAR-5 ovarian
OVCAR-8 ovarian = system: OVCAR-8 ovarian
RPMI-8226 leukemia = system: RPMI-8226 leukemia
RXF 393 renal = system: RXF 393 renal
RXF-631 renal = system: RXF-631 renal
SF-268 CNS = system: SF-268 CNS
SF-295 CNS = system: SF-295 CNS
SF-539 CNS = system: SF-539 CNS
SK-MEL-28 melanoma = system: SK-MEL-28 melanoma
SK-MEL-5 melanoma = system: SK-MEL-5 melanoma
SK-OV-3 ovarian = system: SK-OV-3 ovarian
SN12C renal = system: SN12C renal
SNB-19 CNS = system: SNB-19 CNS
SNB-75 CNS = system: SNB-75 CNS
SW-620 colon = system: SW-620 colon
TK-10 renal = system: TK-10 renal
UACC-257 melanoma = system: UACC-257 melanoma
UACC-62 melanoma = system: UACC-62 melanoma
UO-31 renal = system: UO-31 renal
XF 498 CNS = system: XF 498 CNS
A498 renal = system: A498 renal
BT-549 breast = system: BT-549 breast
CAKI-1 renal = system: CAKI-1 renal
DU-145 prostate = system: DU-145 prostate
HCT-15 colon = system: HCT-15 colon
HL-60(TB) leukemia = system: HL-60(TB) leukemia
HS 578T breast = system: HS 578T breast
MCF7 breast = system: MCF7 breast
MDA-MB-231 breast = system: MDA-MB-231 breast
MDA-MB-435 = system: MDA-MB-435
MDA-N = system: MDA-N
NCI/ADR-RES ovarian = system: NCI/ADR-RES ovarian
P388 leukemia = system: P388 leukemia
P388/ADR leukemia = system: P388/ADR leukemia
PC-3 prostate = system: PC-3 prostate
SK-MEL-2 melanoma = system: SK-MEL-2 melanoma
SN12K1 renal = system: SN12K1 renal
SNB-78 CNS = system: SNB-78 CNS
SR leukemia = system: SR leukemia
T-47D breast = system: T-47D breast
U251 CNS = system: U251 CNS

## CCOc1cccc2ccc[n+](CC)c12
786-0 renal
  TGI: > 100 µM
A549 NSCLC
  TGI: > 100 µM
ACHN renal
  TGI: > 100 µM
CCRF-CEM leukemia
  TGI: > 100 µM
COLO 205 colon
  TGI: > 100 µM
DLD-1 colon
  TGI: > 100 µM
DMS 114 small cell lung
  TGI: > 100 µM
DMS 273 small cell lung
  TGI: > 100 µM
EKVX NSCLC
  TGI: > 100 µM
HCC-2998 colon
  TGI: > 100 µM
HCT-116 colon
  TGI: > 100 µM
HOP-18 NSCLC
  TGI: > 100 µM
HOP-62 NSCLC
  TGI: > 100 µM
HOP-92 NSCLC
  TGI: > 100 µM
HT29 colon
  TGI: > 100 µM
IGROV1 ovarian
  TGI: > 100 µM
K-562 leukemia
  TGI: > 100 µM
KM12 colon
  TGI: > 100 µM
KM20L2 colon
  TGI: > 100 µM
LOX IMVI melanoma
  TGI: > 100 µM
LXFL 529 NSCLC
  TGI: > 100 µM
M14 melanoma
  TGI: > 100 µM
M19-MEL melanoma
  TGI: > 100 µM
MALME-3M melanoma
  TGI: > 100 µM
MOLT-4 leukemia
  TGI: > 100 µM
NCI-H226 lung
  TGI: > 100 µM
NCI-H23 lung
  TGI: > 100 µM
NCI-H460 lung
  TGI: > 100 µM
NCI-H522 lung
  TGI: > 100 µM
OVCAR-3 ovarian
  TGI: > 100 µM
OVCAR-4 ovarian
  TGI: > 100 µM
OVCAR-5 ovarian
  TGI: > 100 µM
OVCAR-8 ovarian
  TGI: > 100 µM
RPMI-8226 leukemia
  TGI: > 100 µM
RXF 393 renal
  TGI: > 100 µM
RXF-631 renal
  TGI: > 100 µM
SF-268 CNS
  TGI: 77.9 µM
SF-295 CNS
  TGI: > 100 µM
SF-539 CNS
  TGI: > 100 µM
SK-MEL-28 melanoma
  TGI: > 100 µM
SK-MEL-5 melanoma
  TGI: > 100 µM
SK-OV-3 ovarian
  TGI: > 100 µM
SN12C renal
  TGI: > 100 µM
SNB-19 CNS
  TGI: > 100 µM
SNB-75 CNS
  TGI: > 100 µM
SW-620 colon
  TGI: > 100 µM
TK-10 renal
  TGI: > 100 µM
UACC-257 melanoma
  TGI: > 100 µM
UACC-62 melanoma
  TGI: > 100 µM
UO-31 renal
  TGI: > 100 µM
XF 498 CNS
  TGI: > 100 µM

## CCCCCCCCCCCCOCCCOP(=O)([O-])OCC[N+](C)(C)C
786-0 renal
  TGI: 37.4 µM
A498 renal
  TGI: 83.6 µM
A549 NSCLC
  TGI: > 100 µM
ACHN renal
  TGI: > 80.2 µM
BT-549 breast
  TGI: 33.1 µM
CAKI-1 renal
  TGI: 47.5 µM
CCRF-CEM leukemia
  TGI: 70.2 µM
COLO 205 colon
  TGI: 31.7 µM
DLD-1 colon
  TGI: > 95.8 µM
DMS 273 small cell lung
  TGI: 35.5 µM
DU-145 prostate
  TGI: > 75.1 µM
EKVX NSCLC
  TGI: > 100 µM
HCC-2998 colon
  TGI: 24.9 µM
HCT-116 colon
  TGI: > 86.8 µM
HCT-15 colon
  TGI: > 73.3 µM
HL-60(TB) leukemia
  TGI: 55.5 µM
HOP-18 NSCLC
  TGI: > 100 µM
HOP-62 NSCLC
  TGI: > 100 µM
HOP-92 NSCLC
  TGI: 52.8 µM
HS 578T breast
  TGI: 57.7 µM
HT29 colon
  TGI: 61.7 µM
IGROV1 ovarian
  TGI: 25.6 µM
K-562 leukemia
  TGI: > 76.5 µM
KM12 colon
  TGI: 9.77 µM
KM20L2 colon
  TGI: > 100 µM
LOX IMVI melanoma
  TGI: 59.8 µM
M14 melanoma
  TGI: 98.2 µM
M19-MEL melanoma
  TGI: > 100 µM
MALME-3M melanoma
  TGI: > 84.4 µM
MCF7 breast
  TGI: > 100 µM
MDA-MB-231 breast
  TGI: 40.1 µM
MDA-MB-435
  TGI: > 70 µM
MDA-N
  TGI: 19.3 µM
MOLT-4 leukemia
  TGI: 65.1 µM
NCI-H226 lung
  TGI: 65.8 µM
NCI-H23 lung
  TGI: 99.2 µM
NCI-H460 lung
  TGI: > 70 µM
NCI-H522 lung
  TGI: 68.3 µM
NCI/ADR-RES ovarian
  TGI: > 100 µM
OVCAR-3 ovarian
  TGI: > 100 µM
OVCAR-4 ovarian
  TGI: > 100 µM
OVCAR-5 ovarian
  TGI: > 100 µM
OVCAR-8 ovarian
  TGI: > 80.3 µM
P388 leukemia
  TGI: 97.7 µM
P388/ADR leukemia
  TGI: > 100 µM
PC-3 prostate
  TGI: 9.73 µM
RPMI-8226 leukemia
  TGI: 31.6 µM
RXF 393 renal
  TGI: > 53.3 µM
SF-268 CNS
  TGI: 86 µM
SF-295 CNS
  TGI: > 100 µM
SF-539 CNS
  TGI: 54.9 µM
SK-MEL-2 melanoma
  TGI: > 100 µM
SK-MEL-28 melanoma
  TGI: > 92.7 µM
SK-MEL-5 melanoma
  TGI: > 71.3 µM
SK-OV-3 ovarian
  TGI: > 100 µM
SN12C renal
  TGI: > 76.7 µM
SN12K1 renal
  TGI: > 100 µM
SNB-19 CNS
  TGI: 46.9 µM
SNB-75 CNS
  TGI: 71.1 µM
SNB-78 CNS
  TGI: > 89.5 µM
SR leukemia
  TGI: > 73.5 µM
SW-620 colon
  TGI: > 100 µM
T-47D breast
  TGI: 38 µM
TK-10 renal
  TGI: 14.9 µM
U251 CNS
  TGI: 47.7 µM
UACC-257 melanoma
  TGI: 98.9 µM
UACC-62 melanoma
  TGI: > 83.9 µM
UO-31 renal
  TGI: > 89.5 µM
XF 498 CNS
  TGI: > 89.4 µM
